Laboratory results reported in ChEMBL document CHEMBL1130005, “Enantioselective synthesis and antiproliferative properties of an ilmofosine analog, 2'-(trimethylammonio)ethyl 3-(hexadecyloxy)-2-(methoxymethyl)propyl phosphate, on epithelial cancer cell growth” (J Med Chem, 1997).
pIC50: −log10 of the molar value.

Key:
Assay type in all cases: functional, cell-based
MCF7 [1] = experiment: Inhibition of proliferation of breast adenocarcinoma cell line MCF-7; settings: Homo sapiens
A-427 [2] = experiment: Inhibition of large cell lung carcinoma (A427); settings: Homo sapiens
A549 [3] = experiment: Inhibition of non-small-cell lung adenocarcinoma (A549); settings: Homo sapiens
A-427 [4] = experiment: Inhibition of large cell lung carcinoma (A427) after 48-h treatment; settings: Homo sapiens, A-427, 48 h
A549 [5] = experiment: Inhibition of non-small-cell lung adenocarcinoma (A549) after 48-h treatment; settings: Homo sapiens, A549, 48 h
MCF7 [6] = experiment: Inhibition of proliferative breast adenocarcinoma cell line MCF-7 after 48-h treatment; settings: Homo sapiens, MCF7, 48 h

| SMILES | pIC50 (MCF7 [1]) | pIC50 (A-427 [2]) | pIC50 (A549 [3]) | pIC50 (A-427 [4]) | pIC50 (A549 [5]) | pIC50 (MCF7 [6]) |
| --- | --- | --- | --- | --- | --- | --- |
| CCCCCCCCCCCCCCCCOC[C@@H](COC)COP(=O)([O-])OCC[N+](C)(C)C | 5.70 | < 4.70 | 5.00 | – | – | – |
| CCCCCCCCCCCCCCCCSCC(COC)COP(=O)([O-])OCC[N+](C)(C)C (racemic) [ILMOFOSINE] | 5.70 | 4.70 | 5.00 | – | – | – |
| CCCCCCCCCCCCCCCCOC[C@H](COC)COP(=O)([O-])OCC[N+](C)(C)C | – | – | – | 4.70 | 5.12 | 5.70 |
